Assay results from patent US20240189449A1, “LIPID NANOPARTICLES AND POLYNUCLEOTIDES ENCODING ORNITHINE TRANSCARBAMYLASE FOR THE TREATMENT OF ORNITHINE TRANSCARBAMYLASE DEFICIENCY” (ModernaTX, Inc., priority 2021, published 2024).
Marks after values point to notes of the source that are not given here.

Key:
[1] = tested on: CD-1 mice; test: Parent lipid remaining in liver at 24 h, CD-1 mice (hEPO mRNA LNPs); type: in vivo; conditions: for Approx. Percent Total Dose of Parent Lipid Remaining at 24 h: calculation assumes a 25 g mouse with a 1.5 g liver
[2] = tested on: CD-1 mice; test: hEPO expression in serum after IV lipid nanoparticles with hEPO mRNA, CD-1 mice; type: in vivo; conditions: LNP with DSPC, cholesterol, Compound I; for Mean 6 hr hEPO Concentration: serum 6 hours after injection
Procedure: To assess potency of expression and metabolic stability of lipids of the disclosure, hepatocyte protein expression (hEPO) was measured following administration to mice of a nanoparticle of the disclosure.
Lipid nanoparticles including DSPC as a phospholipid, cholesterol as a structural lipid, Compound I as a PEG lipid, an ionizable amino lipid of Formula (II), and an mRNA encoding hEPO were intravenously administered to CD-1 mice. The concentration of hEPO in serum was tested at 6 hours after injection.

Structure (SMILES) | Parent Lipid Remaining (nmol/g liver tissue) at 24 h [1] | Approx. Percent Total Dose of Parent Lipid Remaining at 24 h [1] | hEPO AUC [2] | Mean 6 hr hEPO Concentration [2]
CCCCCCCCC(CCCCCCCC)OC(=O)CCCCCCCN(CCO)CCCCCCCC(=O)OCCC1CCC(CC)C1 (stereo not shown) [Compound 37] | <0.1 nmol/g liver tissue | <0.1% | 1.25E+06 | 85052 mIU/mL
CCCCCC(CCCCC)OC(=O)CCCCCCCN(CCO)CCCCCCCC(=O)OCCC(CCC)CCC [Compound 68] |  |  |  | 488014 mIU/mL
CCCCCCC(CCCCCC)CCOC(=O)CCCCCCCN(CCO)CCCCCCCC(=O)OCCC(CCCCCC)CCCCCC [Compound 23] | 24 ± 3 nmol/g liver tissue | 18% | 1.40E+07 | 847586 mIU/mL
CCCCCC(CCCCC)OC(=O)CCCCCCCN(CCO)CCCCCCCC(=O)OCCC(CCCC)CCCC [Compound 70] |  |  |  | 1479577 mIU/mL
CCCCCC(CCCCC)CCOC(=O)CCCCCCCN(CCCCO)CCCCCCCC(=O)OCCC(CCCCC)CCCCC [Compound 44] |  |  |  | 1273871 mIU/mL
CCCCCCC(CCCCCC)OC(=O)CCCCCCCN(CCO)CCCCCCCC(=O)OCCC(CCC)CCC [Compound 71] |  |  |  | 1921281 mIU/mL
CCCCC(CCCC)CCOC(=O)CCCCCCCN(CCO)CCCCCCCC(=O)OCCC(CCCC)CCCC [Compound 69] |  |  |  | 1572094 mIU/mL
CCCCCCCCC(CCCCCCCC)OC(=O)CCCCCCCN(CCO)CCCCCCCC(=O)OCCCC(CCCCC)CCCCC [Compound 31] | 2 ± 0.6 nmol/g liver tissue | <0.1% | 7.72E+06 | 517841 mIU/mL
CCCCCCCCC(CCCCCCCC)OC(=O)CCCCCCCN(CCO)CCCCCCCC(=O)OCCC(CCCCCC)CCCCCC [Compound 21] | 13 ± 2 nmol/g liver tissue | 9% | 7.29E+06 | 458772 mIU/mL
CCCCCCCCC(CCCCCCCC)OC(=O)CCCCCCCN(CCO)CCCCCCCC(=O)OCCC1CCC(CC)CC1 (stereo not shown) [Compound 35] | <0.1 nmol/g liver tissue | <0.1% | 1.72E+06 | 106485 mIU/mL
CCCCCCCCC(CCCCCCCC)OC(=O)CCCCCCCN(CCCCO)CCCCCCCC(=O)OCCC(CCCC)CCCC [Compound 50] |  |  |  | 2617164 mIU/mL
CCCCCC(CCCCC)CCOC(=O)CCCCCCCN(CCO)CCCCCCCC(=O)OCCC(CCC)CCC [Compound 67] |  |  |  | 969620 mIU/mL
CCCCCCCCC(CCCCCCCC)OC(=O)CCCCCCCN(CCCO)CCCCCCCC(=O)OCCC(CCCC)CCCC [Compound 49] |  |  |  | 2385524 mIU/mL
CCCCCC(CCCCC)CCOC(=O)CCCCCCCN(CCCO)CCCCCCCC(=O)OCCC(CCCCC)CCCCC [Compound 42] |  |  |  | 1428145 mIU/mL
CCCCCC(CCCCC)CCCOC(=O)CCCCCCCN(CCO)CCCCCCCC(=O)OCCCC(CCCCC)CCCCC [Compound 33] | 0.5 ± 0.3 nmol/g liver tissue | <0.1% | 5.89E+06 | 389395 mIU/mL
CCCCCCCCC(CCCCCCCC)OC(=O)CCCCCCCN(CCCCCCCC(=O)OCCC1CCC(CCC)CC1)CCCNc1c(NC)c(=O)c1=O (stereo not shown) [Compound 39] | 4 ± 1 nmol/g liver tissue | 4% | 1.94E+06 | 129750 mIU/mL

Second part, led by results:

Parent Lipid Remaining (nmol/g liver tissue) at 24 h [1] | Approx. Percent Total Dose of Parent Lipid Remaining at 24 h [1] | Structure (SMILES) | hEPO AUC [2] | Mean 6 hr hEPO Concentration [2]
3 ± 0.3 nmol/g liver tissue | 3% | CCCCCCCCC(CCCCCCCC)OC(=O)CCCCCCCN(CCCCCCCC(=O)OCCC1CCC(CC)C1)CCCNc1c(NC)c(=O)c1=O (stereo not shown) [Compound 40] | 4.64E+06 | 303957 mIU/mL
8.5 ± 0.6 nmol/g liver tissue | 9 ± 0.8% | CCCCCCC(CCCCCC)OC(=O)CCCCCCCN(CCCCCCCC(=O)OCCC(CCCC)CCCC)CCCNc1c(NC)c(=O)c1=O [Compound 60] | 1.42E+07 | 1031398 mIU/mL
0.1 ± 0.03 nmol/g liver tissue | <1% | CCCCC(CCCC)OC(=O)CCCCCCCN(CCCCCCCC(=O)OCCC(CCC)CCC)CCCNc1c(NC)c(=O)c1=O [Compound 66] | 2.10E+05 | 17801 mIU/mL
69 ± 17 nmol/g liver tissue | 71% | CCCCCCCCC(CCCCCCCC)OC(=O)CCCCCCCN(CCCCCCCC(=O)OCCCC(CCCCC)CCCCC)CCCNc1c(NC)c(=O)c1=O [Compound 32] | 1.63E+06 | 111656 mIU/mL
0.9 ± 0.3 nmol/g liver tissue | 0.9 ± 0.06% | CCCCCC(CCCCC)OC(=O)CCCCCCCN(CCCCCCCC(=O)OCCC(CCC)CCC)CCCNc1c(NC)c(=O)c1=O [Compound 65] | 1.02E+07 | 734054 mIU/mL
51 ± 4 nmol/g liver tissue | 53% | CCCCCCCCC(CCCCCC)COC(=O)CCCCCN(CCCCCCCC(=O)OC(CC)CCCCCCCC)CCCNc1c(NC)c(=O)c1=O (stereo not shown) [Compound 15] | 4.31E+07 | 2933644 mIU/mL
12 ± 1 nmol/g liver tissue | 13% | CCCCCC(CCCCC)CCOC(=O)CCCCCCCN(CCCCCCCC(=O)OC(CCCCC)CCCCC)CCCNc1c(NC)c(=O)c1=O [Compound 57] | 1.60E+07 | 1238977 mIU/mL
15 ± 2 nmol/g liver tissue | 15% | CCCCCC(CCCCC)CCOC(=O)CCCCCCCN(CCCCCCCC(=O)OC(CCCC)CCCC)CCCNc1c(NC)c(=O)c1=O [Compound 58] | 2.33E+07 | 1347883 mIU/mL
35 ± 5 nmol/g liver tissue | 36% | CCCCCCCCC(CCCCCCCC)OC(=O)CCCCCCCN(CCCCCCCC(=O)OCCC(CCCCCC)C(C)C)CCCNc1c(NC)c(=O)c1=O (stereo not shown) [Compound 17] | 2.61E+07 | 1777875 mIU/mL
141 ± 15 nmol/g liver tissue | >95%^b | CCCCCCCCC(CCCCCCCC)OC(=O)CCCCCCCN(CCCCCCCC(=O)OCCC(CCCCCC)CCCCCC)CCCNc1c(NC)c(=O)c1=O [Compound 26] | 7.52E+06 | 496951 mIU/mL
66 ± 16 nmol/g liver tissue | 68% | CCCCCCCCC(CCCCCCCC)OC(=O)CCCCCCCN(CCCCCCCC(=O)OCCC(CCCCC)CCCCC)CCCNc1c(NC)c(=O)c1=O [Compound 29] | 1.23E+07 | 808734 mIU/mL
77 ± 3 nmol/g liver tissue | 79% | CCCCCCCCC(CCCCCCCC)OC(=O)CCCCCCCN(CCCCCCCC(=O)OCC(CCCCC)CCCCCCC)CCCNc1c(NC)c(=O)c1=O (stereo not shown) [Compound 16] | 2.18E+07 | 1461176 mIU/mL
8.9 ± 2.8 nmol/g liver tissue | 9 ± 3%^ | CCCCCCCC(CCCCCCC)OC(=O)CCCCCCCN(CCCCCCCC(=O)OCCC(CCC)CCC)CCCNc1c(NC)c(=O)c1=O [Compound 63] | 9.66E+06 | 692334 mIU/mL
<1 nmol/g liver tissue | <1% | CCCC(CCC)CCOC(=O)CCCCCCCN(CCCCCCCC(=O)OCCC(CCC)CCC)CCCNc1c(NC)c(=O)c1=O [Compound 53] | 6.63E+03 | 130324 mIU/mL
58 ± 7 nmol/g liver tissue | 60% | CCCCCCC(CCCCCC)CCOC(=O)CCCCCCCN(CCCCCCCC(=O)OCCC(CCCCCC)CCCCCC)CCCNc1c(NC)c(=O)c1=O [Compound 28] | 1.44E+07 | 938332 mIU/mL
4 ± 0.6 nmol/g liver tissue | 4% | CCCCCC(CCCCC)CCOC(=O)CCCCCCCN(CCCCCCCC(=O)OCCC(CCC)CCC)CCCNc1c(NC)c(=O)c1=O [Compound 51] | 1.31E+07 | 1556494 mIU/mL
73 ± 6 nmol/g liver tissue | 75% | CCCCCCCCC(CCCCCCCC)OC(=O)CCCCCCCN(CCCCCCCC(=O)OCC(CCCCCCC)C(C)C)CCCNc1c(NC)c(=O)c1=O (stereo not shown) [Compound 19] | 3.11E+07 | 2089101 mIU/mL
<1 nmol/g liver tissue | <1% | CCCCC(CCCC)CCOC(=O)CCCCCCCN(CCCCCCCC(=O)OCCC(CCC)CCC)CCCNc1c(NC)c(=O)c1=O [Compound 52] | 3.82E+06 | 564670 mIU/mL
